Results on 1 substance are retold here after US6803030B2, “Bile acids conjugates with metal ion chelates and the use thereof” (Bracco Imaging S.p.A., priority 2000, dated 2004).

The series in a line: Pharmacokinetics screening in rats (biliary and urinary excretion, residual tissue content of gadolinium by ICP-AES). In kind it is in vivo. The conditions noted are these: for Biliary % of the injected dose / Urinary % of the injected dose: anaesthetised CD(SD)BR male rats, i.v. 0.1 mmol/kg. The procedure:
The experimentation was performed with the complex compound of example 1.
The screening was performed in 3 anaesthetised CD(SD)BR male rats (Charles River Italia).
The animals were maintained according to EEC Council Directive […] as included in Italian law DL116/92 (experimental typology KIN 3).
The contrast agent was injected in the vena saphena at the single dose of 0.1 mmol.kg^−1, injection rate of 6 mL-min^−1.
After the administration of the complex compound, the collection of the biological fluids in the anaesthetised rats was performed by cannulation of urinary bladder and biliary duct. The urine was collected at 0 to 60, 60 to 120, 120 to 240, 240 to 480 min after injection; the bile at −30 to 0, 0 to 15, 15 to 30, 30 to 60, 60 to 120, 120 to 240, 240 to 480 min after injection.
Animals were killed at the end of the studies by exanguination from abdominal aorta.
Blood, liver and kidneys were collected after the sacrifice for the assay of gadolinium by inductively coupled plasma atomic emission ICP-AES.

Where [1] appears, read: anaesthetised rats, intravenous, 0 to 480 min period.
[2] abbreviates: anaesthetised rats, intravenous, at 480 min after administration.

On to “Gadolinium complex of [3α[3(S),4(S)],5β,12α]-3-[[[trans-3,4-bis[[[5-[bis[2-[bis(carboxymethyl)amino]ethyl]amino]-5-carboxypentyl]amino]carbonyl]-1-pyrrolidinyl]carbonyl]oxy]-12-hydroxycholan-24-oic acid salified with sodium (1:5) [Example 1]”, for which the “Biliary % of the injected dose” value was 0.0102 ± 0.0010 % of the injected dose (collection time 0 to 15 min); 0.0208 ± 0.0012 % of the injected dose (collection time 0 to 30 min); 0.0374 ± 0.0023 % of the injected dose (collection time 0 to 60 min); 0.0561 ± 0.0052 % of the injected dose (collection time 0 to 120 min); 0.0950 ± 0.0073 % of the injected dose (collection time 0 to 240 min); 0.175 ± 0.020 % of the injected dose (collection time 0 to 480 min). Besides, the “Urinary % of the injected dose” value is 11.2 ± 4.6 % of the injected dose (collection time 0 to 60 min), 18.6 ± 5.0 % of the injected dose (collection time 0 to 120 min), 27.9 ± 5.3 % of the injected dose (collection time 0 to 240 min) and 36.2 ± 2.7 % of the injected dose (collection time 0 to 480 min). Under setting [1], the biliary excretion was 0.175 % of ID. In addition, under setting [1], the urinary excretion was 36 % of ID. For the same substance, under setting [2], the “residual content in kidney” value is on record as 6.7 % of the injected dose. Further, the “residual content in liver” value under setting [2] was 2.564 % of the injected dose. Under setting [2], the “residual content in plasma” value is given as 14.3 % of the injected dose.
